From patent publication US12060351B2, “Thiadiazole IRAK4 inhibitors” (Gilead Sciences, Inc., priority 2018, dated 2024)
Like-named read-outs stand apart in the source and are kept apart here.

Experiments:
TNFα = assay: IRAK4 Monocyte TNFα Cell Based Assay (LPS-stimulated, TR-FRET TNFα detection); design: species or system human; conditions: Homo sapiens, Monocyte, read-out: EC50 MONO TNF HTRF
Procedure: IRAK4 Monocyte TNFα Cell Based Assay Procedure:
The cell suspension was then plated at a density of 5,000 cells/well onto black 384 well Greiner clear bottom plates. Plates were pre-spotted with test compounds and serially diluted in DMSO where 40 nL/well were delivered using the Echo 550 acoustic liquid dispenser (Labcyte®) for a final DMSO concentration of 0.1%. Plated cells were treated with compound for 1 hour at 37° C. Cells were then stimulated with 50 pg/ml of LPS (Sigma) excluding outside columns of plate used for unstimulated cell control wells. Cells were incubated for an additional 4 hours at 37° C. Cells were then spun out of the media and 5 μl of sample were taken and analyzed for total TNFα content using the TR-FRET Human TNFα detection system (CisBio). This system utilizes two labeled antibodies (cryptate and XL665) that bind to two different epitopes of the TNFα molecule and produce FRET signal proportional to the concentration of TNFα in the sample. Detection antibodies are mixed 50:50 and 5 μL were dispensed into each well. Plates were covered with clear seals and incubated at room temp overnight. […] Percent of control was calculated as follows: % Control=100×(RatioSample−Ratio0% Stimulation)/(Ratio100% Stimulation−Ratio0% Stimulation) where unstimulated cells (0% stimulation) were the negative control and stimulated cells (100% stimulation) were used as the positive control.

IRAK4 enzyme = molecular target: T1, IRAK4 enzyme (Homo sapiens, UniProt Q9NWZ3); assay: IRAK4 Biochemical Assay (TR-FRET, STK1 KinEASE); conditions: 500 μM ATP, Table 2 second part (compounds 33-343), read-out: IC50 IRAK4-HTBS
T1 construct: purchased Carna Biosciences, Chuo-ku, Kobe, Japan
T1 sequence (Q9NWZ3 1-460): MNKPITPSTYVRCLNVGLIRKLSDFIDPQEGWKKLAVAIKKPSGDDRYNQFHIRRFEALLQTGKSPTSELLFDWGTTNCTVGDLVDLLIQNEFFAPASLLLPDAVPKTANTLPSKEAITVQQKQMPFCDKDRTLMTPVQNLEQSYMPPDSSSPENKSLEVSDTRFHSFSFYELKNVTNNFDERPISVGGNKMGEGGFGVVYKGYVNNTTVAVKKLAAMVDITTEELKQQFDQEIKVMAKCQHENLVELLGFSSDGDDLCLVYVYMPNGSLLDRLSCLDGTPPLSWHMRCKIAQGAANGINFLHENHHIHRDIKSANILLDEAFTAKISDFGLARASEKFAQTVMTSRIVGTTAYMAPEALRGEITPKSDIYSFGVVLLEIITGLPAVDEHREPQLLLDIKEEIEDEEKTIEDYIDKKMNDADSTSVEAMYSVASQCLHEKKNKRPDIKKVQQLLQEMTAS
Procedure: IRAK4 enzyme (Carna Biosciences, Chuo-ku, Kobe, Japan) activity was measured by detecting phosphorylated peptide substrate formation using an antibody against the phosphorylated peptide substrate. This is a time-resolved fluorescence resonance energy transfer (TR-FRET) immunoassay, based on the STK1 KinEASE Assay (Cisbio, Bedford, Massachusetts). The assay was designed as a simple two-step, endpoint assay (a 5 μl enzyme reaction followed by 5 μl stop and detect Solution) performed in ProxiPlate-384 Plus plates (Perkin Elmer, Waltham, Massachusetts). […] Compounds diluted in DMSO were spotted into 384 well plates using a Labcyte® Echo 550 Liquid Handling System prior to addition of IRAK4 enzyme and peptide substrate. Reaction solutions were delivered using a Multi-Flo (Bio-Tek Instruments). The enzyme and peptide solution was incubated with compound for 15 minutes at room temp before the reaction was initiated by the addition of ATP. The standard 5 μl reaction mixture contained 500 μM ATP, 2 μM peptide (STK1 Peptide), 0.75 nM of IRAK4 in reaction buffer (50 mM HEPES, pH 7.0, 0.02% NaN3, 0.01% BSA, 0.1 mM Orthovanadate, 5 mM MgCl2, 0.025% NP-40, 1 mM DTT). After 120 min of incubation at room temperature, 5 μl of Stop and Detect Solution (1:100 Cryptate labeled anti-phosphorylated peptide antibody solution and 125 nM Tracer in a 50 mM HEPES pH 7.0 detection buffer containing sufficient EDTA) was added. The plate was then further incubated for 60 minutes at room temperature and read on Envision 2103 Multilabeled reader (PerkinElmer) with excitation/emission/FRET emission at 340 nm/615 nm/665 nm, respectively. Fluorescence intensities at 615 nm and 665 nm emission wavelengths were expressed as a ratio (665 nm/615 nm).

[1] = human monocytes, LPS-stimulated, Table 2 second part (compounds 33-343)

| SMILES | EC50 (TNFα; [1]) [nM] | IC50 (IRAK4 enzyme) [nM] | EC50 (TNFα) [nM] |
| --- | --- | --- | --- |
| CC(=O)N[C@H]1C[C@@H](c2nnc(-c3cnc(-c4ccc5cc(C#N)cnn45)cc3NC(C)C)s2)C1 [Compound 279, N-((1s,3s)-3-(5-(6-(3-cyanopyrrolo[1,2-b]pyridazin-7-yl)-4-(isopropylamino)pyridin-3-yl)-1,3,4-thiadiazol-2-yl)cyclobutyl)acetamide] | 15.9 | 0.4 | – |
| CC(=O)NC[C@H]1C[C@@H](c2nnc(-c3cnc(-c4ccc5cc(C#N)cnn45)cc3NC(C)C)s2)C1 [Compound 289, N-(((1s,3s)-3-(5-(6-(3-cyanopyrrolo[1,2-b]pyridazin-7-yl)-4-(isopropylamino)pyridin-3-yl)-1,3,4-thiadiazol-2-yl)cyclobutyl)methyl)acetamide] | 21.4 | 0.24 | – |
| CC(=O)NC[C@H]1C[C@H](c2nnc(-c3cnc(-c4ccc5cc(C#N)cnn45)cc3NC(C)C)s2)C1 [Compound 290, N-(((1r,3r)-3-(5-(6-(3-cyanopyrrolo[1,2-b]pyridazin-7-yl)-4-(isopropylamino)pyridin-3-yl)-1,3,4-thiadiazol-2-yl)cyclobutyl)methyl)acetamide] | 16.2 | 0.33 | – |
| CNc1cc(-c2ccc3cc(C#N)cnn23)ncc1-c1nnc(N2C[C@H]3CC[C@@H](C2)[C@@H]3NC(C)=O)s1 [Compound 292, N-((1R,5S,8s)-3-(5-(6-(3-cyanopyrrolo[1,2-b]pyridazin-7-yl)-4-(methylamino)pyridin-3-yl)-1,3,4-thiadiazol-2-yl)-3-azabicyclo[3.2.1]octan-8-yl)acetamide] | 6.7 | 0.2 | – |
| CC(=O)N(C)[C@@H]1[C@@H]2CC[C@H]1CN(c1nnc(-c3cnc(-c4ccc5cc(C#N)cnn45)cc3NC(C)C)s1)C2 [Compound 300, N-((1R,5S,8s)-3-(5-(6-(3-cyanopyrrolo[1,2-b]pyridazin-7-yl)-4-(isopropylamino)pyridin-3-yl)-1,3,4-thiadiazol-2-yl)-3-azabicyclo[3.2.1]octan-8-yl)-N-methylacetamide] | 5.3 | 0.98 | – |
| CC(C)Nc1cc(-c2ccc3cc(C#N)cnn23)ncc1-c1nnc(N2C[C@H]3CC[C@@H](C2)[C@@H]3N2CCOC2=O)s1 [Compound 301, 7-(4-(isopropylamino)-5-(5-((1R,5S,8s)-8-(2-oxooxazolidin-3-yl)-3-azabicyclo[3.2.1]octan-3-yl)-1,3,4-thiadiazol-2-yl)pyridin-2-yl)pyrrolo[1,2-b]pyridazine-3-carbonitrile] | 4.9 | 1.04 | – |
| CC(C)Nc1cc(-c2ccc3cc(C#N)cnn23)ncc1-c1nnc(N2C[C@H]3CC[C@@H](C2)[C@@H]3Nc2ncccn2)s1 [Compound 308, 7-(4-(isopropylamino)-5-(5-((1R,5S,8s)-8-(pyrimidin-2-ylamino)-3-azabicyclo[3.2.1]octan-3-yl)-1,3,4-thiadiazol-2-yl)pyridin-2-yl)pyrrolo[1,2-b]pyridazine-3-carbonitrile] | 18.4 | 1.85 | – |
| CC(C)Nc1cc(-c2ccc3cc(C#N)cnn23)ncc1-c1nnc(N2C[C@H]3CC[C@@H](C2)[C@@H]3Nc2ncccc2F)s1 [Compound 309, 7-(5-(5-((1R,5S,8s)-8-((3-fluoropyridin-2-yl)amino)-3-azabicyclo[3.2.1]octan-3-yl)-1,3,4-thiadiazol-2-yl)-4-(isopropylamino)pyridin-2-yl)pyrrolo[1,2-b]pyridazine-3-carbonitrile] | 687 | 29.4 | – |
| CC(C)(O)C(=O)N[C@H]1CC[C@@H](c2nnc(-c3cnc(-c4ccc5cc(C#N)cnn45)cc3NC3COC3)s2)CC1 [Compound 311, N-((1s,4s)-4-(5-(6-(3-cyanopyrrolo[1,2-b]pyridazin-7-yl)-4-(oxetan-3-ylamino)pyridin-3-yl)-1,3,4-thiadiazol-2-yl)cyclohexyl)-2-hydroxy-2-methylpropanamide] | 22.6 | 0.8 | – |
| CC(C)Nc1cc(-c2ccc3cc(C#N)cnn23)ncc1-c1nnc([C@H]2CC[C@@H](NC(=O)C(C)(C)O)CC2)s1 [Compound 312, N-((1s,4s)-4-(5-(6-(3-cyanopyrrolo[1,2-b]pyridazin-7-yl)-4-(isopropylamino)pyridin-3-yl)-1,3,4-thiadiazol-2-yl)cyclohexyl)-2-hydroxy-2-methylpropanamide] | 17.5 | 0.91 | – |
| COC(=O)N[C@H]1CC[C@H](Nc2cc(-c3ccc4cc(C#N)cnn34)ncc2-c2nnc([C@H]3CC[C@H](NC(C)=O)CC3)s2)CC1 [Example 34, methyl ((1R,4r)-4-((5-(5-((1r,4R)-4-acetamidocyclohexyl)-1,3,4-thiadiazol-2-yl)-2-(3-cyanopyrrolo[1,2-b]pyridazin-7-yl)pyridin-4-yl)amino)cyclohexyl)carbamate] | 4.9 | 0.55 | – |
| CC(C)Nc1cc(-c2ccc3cc(C#N)cnn23)ncc1-c1nnc(NCC(C)(C)O)s1 [Example 37, 7-(5-(5-((2-hydroxy-2-methylpropyl)amino)-1,3,4-thiadiazol-2-yl)-4-(isopropylamino)pyridin-2-yl)pyrrolo[1,2-b]pyridazine-3-carbonitrile] | ≥ 10000 | ≥ 1000 | – |
| CC(=O)N[C@@H]1[C@@H]2CC[C@H]1CN(c1nnc(-c3cnc(-c4ccc5cc(C#N)cnn45)cc3NC(C)C)s1)C2 [Example 38, N-((1R,5S,8s)-3-(5-(6-(3-cyanopyrrolo[1,2-b]pyridazin-7-yl)-4-(isopropylamino)pyridin-3-yl)-1,3,4-thiadiazol-2-yl)-3-azabicyclo[3.2.1]octan-8-yl)acetamide] | 3.5 | 0.8 | – |
| CC(=O)N[C@H]1[C@@H]2CC[C@H]1CN(c1nnc(-c3cnc(-c4ccc5cc(C#N)cnn45)cc3NC(C)C)s1)C2 [Example 39, N-((1R,5S,8r)-3-(5-(6-(3-cyanopyrrolo[1,2-b]pyridazin-7-yl)-4-(isopropylamino)pyridin-3-yl)-1,3,4-thiadiazol-2-yl)-3-azabicyclo[3.2.1]octan-8-yl)acetamide] | 10.4 | 0.89 | – |
| CC(=O)N[C@H]1[C@@H]2C[C@H]1CN(c1nnc(-c3cnc(-c4ccc5cc(C#N)cnn45)cc3NC(C)C)s1)C2 [Example 45, N-((1R,5S,6r)-3-(5-(6-(3-cyanopyrrolo[1,2-b]pyridazin-7-yl)-4-(isopropylamino)pyridin-3-yl)-1,3,4-thiadiazol-2-yl)-3-azabicyclo[3.1.1]heptan-6-yl)acetamide] | – | 1.13 | 11.8 |
| COC(=O)NC[C@H]1C[C@H](Nc2cc(-c3ccc4cc(C#N)cnn34)ncc2-c2nnc(N3CCN4CCOC[C@H]4C3)s2)C1 [Example 51, methyl (((1R,3r)-3-((2-(3-cyanopyrrolo[1,2-b]pyridazin-7-yl)-5-(5-((R)-hexahydropyrazino[2,1-c][1,4]oxazin-8(1H)-yl)-1,3,4-thiadiazol-2-yl)pyridin-4-yl)amino)cyclobutyl)methyl)carbamate] | 4.7 | 1.73 | – |
